Non-standard residues stand in square brackets, D forms with d. Residues, ends and D or L forms follow the SMILES beside them. Groups on a side chain read outwards from the residue. *: point of attachment. Phe(4-Br) = N[C@@H](Cc1ccc(Br)cc1)C(=O)O; Phe(4-Cl) = N[C@@H](Cc1ccc(Cl)cc1)C(=O)O; Phe(4-F) = N[C@@H](Cc1ccc(F)cc1)C(=O)O; 2Nal = N[C@@H](Cc1ccc2ccccc2c1)C(=O)O; NEt2 = CCN(CC)*
Columns and labels:
HeLa = assay: Antitumor activity against human HeLa cells; type: functional, cell-based
MDA-MB-231 = assay: Antitumor activity against human MDA-MB-231 cells; type: functional, cell-based
[1] = Inhibition of IMPDH (unknown origin); parameters: species or system Homo sapiens
Acetylcholinesterase = Acetylcholinesterase (Homo sapiens, UniProt P22303); assay: Inhibition of AchE (unknown origin)
Proteasome = assay: Inhibition of proteasome (unknown origin); type: subcellular, Homo sapiens
Monoglyceride lipase = target: T1, Monoglyceride lipase (Homo sapiens, UniProt Q99685); assay: Inhibition of MAGL (unknown origin)
T1 sequence (Q99685 whole entry): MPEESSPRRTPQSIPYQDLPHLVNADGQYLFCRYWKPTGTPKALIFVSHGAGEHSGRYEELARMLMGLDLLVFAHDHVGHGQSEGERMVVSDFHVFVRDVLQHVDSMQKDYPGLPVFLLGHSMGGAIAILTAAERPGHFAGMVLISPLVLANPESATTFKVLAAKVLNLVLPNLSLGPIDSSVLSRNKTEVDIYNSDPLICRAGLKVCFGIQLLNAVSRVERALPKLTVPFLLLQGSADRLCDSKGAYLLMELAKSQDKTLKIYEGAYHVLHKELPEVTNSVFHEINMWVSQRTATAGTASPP

Cathepsin B = Cathepsin B (Homo sapiens, UniProt P07858); assay: Inhibition of cathepsin B (unknown origin)
[2] = target: T2, Tyrosine-protein phosphatase non-receptor type 11 (Homo sapiens) (UniProt Q06124); assay: Inhibition of SHP2 (unknown origin) at 100 uM
T2 sequence (whole entry): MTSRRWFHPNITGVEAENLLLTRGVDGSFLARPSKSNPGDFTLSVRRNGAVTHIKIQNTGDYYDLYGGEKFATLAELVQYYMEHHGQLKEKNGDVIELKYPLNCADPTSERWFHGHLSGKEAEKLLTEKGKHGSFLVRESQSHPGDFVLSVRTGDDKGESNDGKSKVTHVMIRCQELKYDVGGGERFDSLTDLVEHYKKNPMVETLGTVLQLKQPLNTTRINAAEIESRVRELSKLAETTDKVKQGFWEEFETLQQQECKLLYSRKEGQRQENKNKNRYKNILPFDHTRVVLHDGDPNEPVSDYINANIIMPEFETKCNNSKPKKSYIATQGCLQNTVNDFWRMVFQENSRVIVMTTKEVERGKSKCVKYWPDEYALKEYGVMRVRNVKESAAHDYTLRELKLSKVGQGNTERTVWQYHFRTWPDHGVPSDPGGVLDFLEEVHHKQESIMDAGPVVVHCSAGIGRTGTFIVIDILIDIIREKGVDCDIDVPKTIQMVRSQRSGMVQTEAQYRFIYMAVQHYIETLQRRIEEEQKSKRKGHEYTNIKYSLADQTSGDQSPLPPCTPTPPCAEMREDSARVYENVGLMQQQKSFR

[3] = target: T2, Tyrosine-protein phosphatase non-receptor type 11 (Homo sapiens); assay: Inhibition of SHP2 (unknown origin) at 50 uM
[4] = target: T2, Tyrosine-protein phosphatase non-receptor type 11 (Homo sapiens); assay: Inhibition of SHP2 (unknown origin) at 20 uM
[5] = target: T2, Tyrosine-protein phosphatase non-receptor type 11 (Homo sapiens); assay: Inhibition of SHP2 (unknown origin) at 25 uM
[6] = target: T2, Tyrosine-protein phosphatase non-receptor type 11 (Homo sapiens); assay: Inhibition of SHP2 (unknown origin) at 10 uM
[7] = target: T2, Tyrosine-protein phosphatase non-receptor type 11 (Homo sapiens); assay: Inhibition of SHP2 (unknown origin) at 5 uM
[8] = target: T3, Tyrosine-protein phosphatase non-receptor type 11 (Homo sapiens, UniProt Q06124); assay: Inhibition of SHP2 (unknown origin)
T3 sequence (Q06124 whole entry): T2 sequence (whole entry)

Sequence of Acetylcholinesterase (P22303 whole entry): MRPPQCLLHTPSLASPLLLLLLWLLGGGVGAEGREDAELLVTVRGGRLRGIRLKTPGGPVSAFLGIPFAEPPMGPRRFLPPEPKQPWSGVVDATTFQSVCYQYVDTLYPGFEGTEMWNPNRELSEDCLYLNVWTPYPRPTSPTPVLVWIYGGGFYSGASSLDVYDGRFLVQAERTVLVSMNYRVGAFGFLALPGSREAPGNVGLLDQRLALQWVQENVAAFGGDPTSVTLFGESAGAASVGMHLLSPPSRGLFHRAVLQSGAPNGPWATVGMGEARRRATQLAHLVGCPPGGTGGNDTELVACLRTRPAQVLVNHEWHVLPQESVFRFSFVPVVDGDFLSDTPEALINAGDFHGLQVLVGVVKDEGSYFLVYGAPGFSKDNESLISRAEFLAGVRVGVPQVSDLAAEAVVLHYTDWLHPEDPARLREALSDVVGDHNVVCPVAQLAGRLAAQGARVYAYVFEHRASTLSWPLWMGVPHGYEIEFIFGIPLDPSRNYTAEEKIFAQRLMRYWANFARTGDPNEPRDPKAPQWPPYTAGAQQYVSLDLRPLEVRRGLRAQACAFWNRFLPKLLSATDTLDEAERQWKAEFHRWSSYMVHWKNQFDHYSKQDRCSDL

| Compound | IC50 (HeLa) [µg/mL] | IC50 (MDA-MB-231) [µg/mL] | IC50 [1] [µg/mL] | IC50 (Acetylcholinesterase) [µM] | IC50 (Proteasome) [µg/mL] | IC50 (Monoglyceride lipase) [µM] | IC50 (Cathepsin B) [µM] | inhibition [2] [%] | inhibition [3] [%] | inhibition [4] [%] | inhibition [5] [%] | inhibition [6] [%] | inhibition [7] [%] | IC50 [8] [µM] |
| --- | --- | --- | --- | --- | --- | --- | --- | --- | --- | --- | --- | --- | --- | --- |
| CCN(CC)C(=O)[C@H](Cc1ccc(OC)cc1)NC(=O)[C@H](CC(C)C)NC(=O)[C@@H](NC(=O)[C@@H](N)COC(=O)[C@@H]1CCCN1C(C)=O)C(C)C (H-S([Pro-Ac])VLY(Me)-NEt2) | > 50 | > 50 | > 100 | > 145 | > 100 | > 145 | > 145 | 87 | 53 | 35 |  |  |  |  |
| CCN(CC)C(=O)[C@H](Cc1ccc(OC)cc1)NC(=O)[C@H](CC(C)C)NC(=O)[C@@H](NC(=O)[C@@H](N)COC(=O)[C@H](CC(C)C)NC(C)=O)C(C)C (H-S([Leu-Ac])VLY(Me)-NEt2) | > 50 | > 50 | > 100 | > 142 | > 100 | > 142 | > 142 | 92 | 52 | 34 |  |  |  |  |
| CCN(CC)C(=O)[C@H](Cc1ccc(F)cc1)NC(=O)[C@H](CC(C)C)NC(=O)[C@@H](NC(=O)[C@@H](N)COC(=O)[C@H](CC(C)C)NC(C)=O)C(C)C (H-S([Leu-Ac])VL[Phe(4-F)]-NEt2) | > 50 | > 50 | > 100 | > 144 | > 100 | > 144 | > 144 | 97 | 55 | 32 |  |  |  |  |
| CCN(CC)C(=O)[C@H](Cc1ccc(Br)cc1)NC(=O)[C@H](CC(C)C)NC(=O)[C@@H](NC(=O)[C@@H](N)COC(=O)[C@H](CC(C)C)NC(C)=O)C(C)C (H-S([Leu-Ac])VL[Phe(4-Br)]-NEt2) | > 50 | > 50 | > 100 | > 133 | > 100 | > 133 | > 133 | 96 | 78 | 46 | 49 | 26 | 21 | 33.2 |
| CCN(CC)C(=O)[C@H](Cc1ccc(Cl)cc1)NC(=O)[C@H](CC(C)C)NC(=O)[C@@H](NC(=O)[C@@H](N)COC(=O)[C@H](CC(C)C)NC(C)=O)C(C)C (H-S([Leu-Ac])VL[Phe(4-Cl)]-NEt2) | > 50 | > 50 | > 100 | > 141 | > 100 | > 141 | > 141 | 89 | 49 | 21 |  |  |  |  |
| CCN(CC)C(=O)[C@H](Cc1ccc2ccccc2c1)NC(=O)[C@H](CC(C)C)NC(=O)[C@@H](NC(=O)[C@@H](N)COC(=O)[C@@H]1CCCN1C(C)=O)C(C)C (H-S([Pro-Ac])VL[2Nal]-NEt2) | > 50 | > 50 | > 100 | > 141 | > 100 | > 141 | > 141 | 94 | 76 | 58 | 61 | 47 | 33 | 12.5 |
| CCN(CC)C(=O)[C@H](Cc1ccc(Cl)cc1)NC(=O)[C@H](CC(C)C)NC(=O)[C@@H](NC(=O)[C@@H](N)COC(=O)[C@@H]1CCCN1C(C)=O)C(C)C (H-S([Pro-Ac])VL[Phe(4-Cl)]-NEt2) | > 50 | > 50 | > 100 | > 144 | > 100 | > 144 | > 144 | 88 | 46 | 37 |  |  |  |  |
| CCN(CC)C(=O)[C@H](Cc1ccccc1)NC(=O)[C@H](CC(C)C)NC(=O)[C@@H](NC(=O)[C@@H](N)COC(=O)[C@@H]1CCCN1C(C)=O)C(C)C (H-S([Pro-Ac])VLF-NEt2) | > 50 | > 50 | > 100 | > 152 | > 100 | > 152 | > 152 | 95 | 54 | 29 |  |  |  |  |
| CCN(CC)C(=O)[C@H](Cc1ccc2ccccc2c1)NC(=O)[C@H](CC(C)C)NC(=O)[C@@H](NC(=O)[C@@H](N)COC(=O)[C@H](CC(C)C)NC(C)=O)C(C)C (H-S([Leu-Ac])VL[2Nal]-NEt2) | > 50 | > 50 | > 100 | > 138 | > 100 | > 138 | > 138 | 93 | 46 | 27 |  |  |  |  |
| CCN(CC)C(=O)[C@H](Cc1ccc(F)cc1)NC(=O)[C@H](CC(C)C)NC(=O)[C@@H](NC(=O)[C@@H](N)COC(=O)[C@@H]1CCCN1C(C)=O)C(C)C (H-S([Pro-Ac])VL[Phe(4-F)]-NEt2) | > 50 | > 50 | > 100 | > 148 | > 100 | > 148 | > 148 | 95 | 81 | 44 | 47 | 23 | 18 | 31.9 |
| CCN(CC)C(=O)[C@H](Cc1ccccc1)NC(=O)[C@H](CC(C)C)NC(=O)[C@@H](NC(=O)[C@@H](N)COC(=O)[C@H](CC(C)C)NC(C)=O)C(C)C (H-S([Leu-Ac])VLF-NEt2) | > 50 | > 50 | > 100 | > 148 | > 100 | > 148 | > 148 | 94 | 83 | 40 | 46 | 31 | 12 | 36.8 |
| CCN(CC)C(=O)[C@H](Cc1ccc(Br)cc1)NC(=O)[C@H](CC(C)C)NC(=O)[C@@H](NC(=O)[C@@H](N)COC(=O)[C@@H]1CCCN1C(C)=O)C(C)C (H-S([Pro-Ac])VL[Phe(4-Br)]-NEt2) | > 50 | > 50 | > 100 | > 136 | > 100 | > 136 | > 136 | 86 | 51 | 20 |  |  |  |  |

— ChEMBL document CHEMBL3400108, “Synthesis and biological evaluation of open-chain analogs of cyclic peptides as inhibitors of cellular Shp2 activity” (Bioorg Med Chem, 2015)
